In patent publication US10780061B2, “Composition comprising farnesol and use thereof” (Daegu Gyongbuk Institute of Science and Technology, priority 2014, dated 2020):

Tests used:
[1] = for reference; cited from earlier work
[2] = tested on: PARIS, PGC-1α; test: Immunoprecipitation for PGC-1α expression and PARIS-farnesylation, short-term high fat diet; assay type: in vivo, mouse; conditions: high fat diet with 0.5% compound, 5 days, gastrocnemius muscles
Text: (§1) To prepare the PGC-1α-inhibited model, 3-month-old mouse (female, body weight of 20 g) is fed with high fat diet, in which fat is increased to 60%, compared to a negative control group, for 5 days (short-term effect) or 3 months (long-term effect). The negative control group is fed with a general diet. Farnesol is mixed in the high fat diet at a content of 0.5% (weight of farnesol/weight of diet). A positive control group is fed with high fat diet containing a type II diabetes drug, metformin at a content of 0.5% (weight of metformin/weight of diet). Mice are fed with the general diet, the high fat diet, and the high fat diet containing farnesol or metformin for 3 months, and then hind limbs are removed to analyze muscle differentiation and mitochondrial enzyme activity.
The effects of high fat diet and farnesol and metformin on PGC-1α induction by PARIS-farnesylation are evaluated. To analyze effect of short-term high fat diet, mice are fed with the above conditions for 5 days. Immunoblotting of PGC-1α and PARIS in gastrocnemius muscles of the mice is performed.
In this regard, PARIS-farnesylation is normalized to the immunoprecipitated PARIS expression level.

[3] = tested on: PARIS, PGC-1α; test: Western blotting of hind limb muscles, high fat diet for 3 months; assay type: in vivo, mouse; conditions: high fat diet with 0.5% compound
Text: as §1

[4] = tested on: Myh2a-positive muscle fibers; test: Myh2a immunostaining of hind limb muscles, high fat diet (PGC-1α-inhibited) model; assay type: in vivo, mouse; conditions: high fat diet with 0.5% compound, 3 months
Text: as §1
In FIG. 6C, SD represents a standard diet as a negative control group, HFD represents a high fat diet, and HFD+Farnesol or HFD-metformin represents farnesol or metformin-added HFD, respectively.

[5] = tested on: SDH enzyme activity; test: SDH staining of hind limb muscles, high fat diet model; assay type: in vivo, mouse; conditions: high fat diet with 0.5% compound, 3 months
Text: as §1

Row | SMILES | ID50 [1] [mg/kg] | reduction in PARIS-farnesylation by high fat diet [2] | reduction in PGC-1α expression by high fat diet [2] | decreased PGC-1α expression by high fat diet [3] | increased PARIS level by high fat diet [3] | percentage of Myh2a-postive muscle fibers [4] | percentage of muscle fibers showing increased SDH enzyme activity [5]
1 | CC(=O)Oc1ccccc1C(=O)O [aspirin] | 250 | – | – | – | – | – | –
2 | CN(C)C(=N)N=C(N)N [metformin, reference compound] | – | inhibited | inhibited | inhibited | inhibited | significantly increases | increased
